This note sets out measurements from US20240327458A1, “MACROCYCLIC PEPTIDOMIMETIC PROTEASE INHIBITOR AND USE THEREOF” (TENCENT TECHNOLOGY (SHENZHEN) COMPANY LIMITED, priority 2022, published 2024).

Read-outs that look alike come from different tables or passages of the source.

For one data set, the target named is M^pro (Severe acute respiratory syndrome coronavirus 2 (2019-nCoV) (SARS-CoV-2), UniProt P0DTD1). The settings on record: read-out: M^pro IC50; GST-AVLQ-3Clpro-GP-6His; substrate MCA-AVLQSGFR-Lys(Dnp)-Lys-NH2; Ex320/Em405.
The conditions of data set [1]: rcm bond, Grubbs 2nd generation catalyst, dichloromethane, 25.0 °C.

Text for M^pro: An objective of this experiment is to detect the in vitro inhibitory activity against M^pro of the compound of the present disclosure.
Experimental steps and methods: • 1. Prepare a 1× buffer solution (modified Tris buffer solution). • 2. Transfer a to-be-tested compound to the assay plate with Echo's 100% DMSO solution to a final DMSO content of 0.5%. • 3. Prepare a mixed protein solution: Add GST-AVLQ-3Clpro-GP-6His in a 1× assay buffer solution to support the mixed protein solution. • 4. […] Add 10 μL of 2× mixed protein solution in the assay plate, centrifuge for 30s, shake for 30s, and incubate the solution at room temperature for 15 min. • 6. Add 10 μL of 2× mixed substrate solution in the assay plate, centrifuge for 30, and shake for 30s. • 7. Read the data dynamically on Synergy (Ex320/Em405).

As to `CC1(C)[C@@H]2[C@H]3C(=O)N[C@H](C#N)CCC(=O)NCCCCCCCC[C@H](NC(=O)C(F)(F)F)C(=O)N3C[C@@H]21` [Compound 6, N-((3S, 16S, 19aS, 20aR, 20bS)-3-cyano-20,20-dimethyl-1,6,17-trioxydocosanylhydrocyclopropa[3,4]pyrrole[1,2-a][1,4,9]triazacyclononanedioic acid-16-yl)-2,2,2-trifluoroacetamide], on M^pro, the concentration for half-maximal inhibition (IC50) is 379 nM. The same measure, in the same setting: for `CC1(C)[C@@H]2[C@H]3C(=O)N[C@H](C#N)CCC(=O)NCCC/C=C/CCC[C@H](NC(=O)C(F)(F)F)C(=O)N3C[C@@H]21` [Compound 8b, N-((3S, 16S, 19aS, 20aR, 20bS, Z/E)-3-cyano-20,20-dimethyl-1,6,17-trioxo-1,2,3,4,5,6,7,8,9,10,13,14,15,16,17,19,19a,20,20a,20b-eicosanylhydrocyclopropyl[3,4]pyrrole[1,2-a][1,4,9]triazacyclonon-16-yl)-2,2,2-trifluoroacetamide] the value was 138 nM.

As for `COC(=O)[C@@H]1CCC(=O)NCCCC=CCCC[C@H](NC(=O)OC(C)(C)C)C(=O)N2C[C@H]3[C@@H]([C@H]2C(=O)N1)C3(C)C`, in data set [1] (from C=CCCCNC(=O)CC[C@H](NC(=O)[C@@H]1[C@@H]2[C@H](CN1C(=O)[C@H](CCCC=C)NC(=O)OC(C)(C)C)C2(C)C)C(=O)OC, 4.53 mM, 2.0 h), the ring closure, yield of all isomers turned out to be 60%. Compound `COC(=O)[C@@H]1CCC(=O)N(C)CCCC=CCC[C@H](NC(=O)OC(C)(C)C)C(=O)N2C[C@H]3[C@@H]([C@H]2C(=O)N1)C3(C)C` displayed a ring closure, yield of all isomers in data set [1] (from C=CCCCN(C)C(=O)CC[C@H](NC(=O)[C@@H]1[C@@H]2[C@H](CN1C(=O)[C@H](CCC=C)NC(=O)OC(C)(C)C)C2(C)C)C(=O)OC, 5.1 mM, 16.0 h) of 94%.

In data set [1] (from C=CCCCNC(=O)CC[C@H](NC(=O)[C@@H]1[C@H]2CCC[C@H]2CN1C(=O)[C@H](CC=C)NC(=O)OC(C)(C)C)C(=O)OC, 3.75 mM, 16.0 h), `COC(=O)[C@@H]1CCC(=O)NCCCC=CC[C@H](NC(=O)OC(C)(C)C)C(=O)N2C[C@@H]3CCC[C@@H]3[C@H]2C(=O)N1` showed a ring closure, yield of all isomers of 94%. Regarding `CC1(C)[C@@H]2[C@H]3C(=O)N[C@H](C#N)CCC(=O)NCCCCCCC[C@H](NC(=O)C(F)(F)F)C(=O)N3C[C@@H]21` [Compound 1, N-((3S, 15S, 18aS, 19aR, 19bS)-3-cyano-19,19-dimethyl-1,6,16-trioxyeicosanylhydro-2H-cyclopropyl[3,4]pyrrole[1,2-a][1,4, 9]triazocyclooctadecyl-15-yl)-2,2,2-trifluoroacetamide], the IC50 on M^pro is 254 nM. Same read-out and setting: for `CC1(C)[C@@H]2[C@H]3C(=O)N[C@H](C#N)CCC(=O)NCCCCCC[C@H](NC(=O)C(F)(F)F)C(=O)N3C[C@@H]21` [Compound 7, N-((3S, 14S, 17aS, 18aR, 18bS)-3-cyano-18,18-dimethyl-1,6,15-trioxyeicosanylhydrocyclopropyl[3,4]pyrrole[1,2-a][1,4,9]triazacycloheptanedioic acid-14-yl)-2,2,2-trifluoroacetamide] the value was 16 nM. Turning to `COC(=O)[C@@H]1CCC(=O)NCCCC=CC[C@H](NC(=O)OC(C)(C)C)C(=O)N2C[C@H]3[C@@H]([C@H]2C(=O)N1)C3(C)C`, the ring closure, yield of all isomers in data set [1] (from C=CCCCNC(=O)CC[C@H](NC(=O)[C@@H]1[C@@H]2[C@H](CN1C(=O)[C@H](CC=C)NC(=O)OC(C)(C)C)C2(C)C)C(=O)OC, 3.53 mM, 16.0 h) is 100%.

`COC(=O)[C@@H]1CCC(=O)NCCC=Cc2cccc(c2)[C@H](NC(=O)OC(C)(C)C)C(=O)N2C[C@H]3[C@@H]([C@H]2C(=O)N1)C3(C)C` showed a ring closure, yield of all isomers in data set [1] (from C=CCCNC(=O)CC[C@H](NC(=O)[C@@H]1[C@@H]2[C@H](CN1C(=O)[C@@H](NC(=O)OC(C)(C)C)c1cccc(C=C)c1)C2(C)C)C(=O)OC, 3.55 mM, 16.0 h) of 20%.

Turning to `COC(=O)[C@@H]1CCC(=O)NCCCC=CCC[C@H](NC(=O)OC(C)(C)C)C(=O)N2C[C@H]3[C@@H]([C@H]2C(=O)N1)C3(C)C`, the ring closure, yield of all isomers in data set [1] (from C=CCCCNC(=O)CC[C@H](NC(=O)[C@@H]1[C@@H]2[C@H](CN1C(=O)[C@H](CCC=C)NC(=O)OC(C)(C)C)C2(C)C)C(=O)OC, 1.73 mM, 16.0 h) was 86%.

`CC1(C)[C@@H]2[C@H]3C(=O)N[C@H](C#N)CCC(=O)NCCC/C=C\CC[C@H](NC(=O)C(F)(F)F)C(=O)N3C[C@@H]21` [Compound 4, N-((3S, 15S, 18aS, 19aR, 19bS, Z)-3-cyano-19,19-dimethyl-1,6,16-trioxo-1,3,4,5,6,7,8,9,10,13,14,15,16,18,18a,19,19a,19b-octadecahydro-2H-cyclopropane[3,4]pyrrole[1,2-a][1,4,9]triazacyclooctadecene-15-yl)-2,2,2-trifluoroacetamide]: the half-inhibitory concentration (IC50) at M^pro worked out at 411 nM.

In general, IC50 refers to the concentration that inhibits the measured activity by half.
